# Test results as given in patent US20170095440A1, “METHOD OF TREATING CANINE PANCREATITIS” (CK9, LLC, priority 2014, published 2017).
# Entries after “also recorded” stand apart in the source; their conditions may differ.
# Columns and labels:
# [1] = system: dogs with suspected chronic pancreatitis; experiment: Serum S100A12 before and after treatment, clinical trial; format: in vivo, dog; settings: 8 mg/kg q 8 hrs, n=17
# [2] = system: dogs with suspected chronic pancreatitis; experiment: Serum TGF-β1 before and after treatment, clinical trial; format: in vivo, dog; settings: for Change in serum TGF-β1, pre- vs post-treatment (paired t-test): methanesulfonate
# Description: Treatment effects on overall health status, quality of life, and clinical signs were also evaluated with serum biochemistry profiles, complete blood counts, and owner questionnaires.
# Dogs were identified by screening current submissions to the Gastrointestinal Laboratory at Texas A&M indicative of pancreatitis (canine pancreas-specific lipase≧400 μg/L) using an immunoassay for measurement of canine pancreas-specific lipase in canine serum known as the spec CPL® Test (IDEXX, Laboratories). A number of potential study participants were directly referred to the investigator by veterinarians, based on positive pet-side SNAP cPL® Test (IDEXX Laboratories, Westbrook, Me., USA) results and concomitant clinical signs. After ascertaining individual suitability of a patient with the referring veterinarian, serum canine pancreas-specific lipase concentration, serum biochemistry profile, and complete blood count were evaluated or re-evaluated 12±4 days after collection of the initial sample submission to the Gastrointestinal Laboratory. Based on the assumption that consecutive canine pancreas-specific lipase elevations indicate chronic pancreatitis, enrollment was offered for patients with canine pancreas-specific lipase concentrations≧400 μg/L, serum triglyceride concentrations below 500 mg/dL, and no indication of hepatic, renal, or other organ disease. […] Owner consent was required prior to phlebotomy and for enrollment into the trial.
# Twelve enrolled dogs received camostat capsules at a dosage of 4 mg/kg q 8 hrs, for a total dose of 12 mg/kg q 24 hrs. […] Individual patients were medicated for between 21 to 31 days.
# Blood samples were collected before beginning the treatment and after completion of the treatment period. Complete blood count (red blood cell count, hematocrit, mean corpuscular volume, mean corpuscular hemoglobin, mean corpuscular hemoglobin concentration, differential and absolute white blood cell count, red blood cell count, hemoglobin, platelet estimate, red blood cell morphology, white blood cell morphology, and hemoparasites) was evaluated at the Texas Veterinary Medical Diagnostic Laboratory (TVMDL). A serum chemistry profile with electrolytes (glucose, blood urea nitrogen, creatinine, calcium, phosphorus, albumin, total protein, total bilirubin, alkaline phosphatase, alanine amino transferase, aspartate amino transferase, γ-glutamyl transferase, cholesterol, triglycerides, globuline, sodium, potassium, and chloride) was performed on a SIRRUS analyzer (Stanbio, Boerne, Tex., USA). Serum concentrations of cPL (RI: 0-200 μg/L; Spec cPL® IDEXX Laboratories, Westbrook, Me., USA), cTLI (RI: 5.7-45.2 μg/L; Canine TLI DOUBLE ANTIBODY®, Siemens Healthcare Diagnostics, Los Angeles, Calif., USA), cobalamin (RI: 251-908 ng/L), and folate (RI: 7.7-24.4 μg/L; Immulite 2000®, Siemens Healthcare Diagnostics Inc., Deerfield, Ill., USA), canine specific C-reactive protein (RI: 0-7.6 mg/L, Tridelta Development Limited, Maynooth, CO. Kildare, Ireland), S100A12 (RI: 56-331 μg/L, Gastrointestinal Laboratory in-house radioimmunoassay), and TGF-β1 (RI: 38-72 ng/mL; Quantikine® ELISA, R&D Systems, Minneapolis, […]., USA) were performed at the Gastrointestinal Lab at Texas A&M University.
# Pre-treatment and post-treatment results for all diagnostic tests were statistically analyzed using Prism 6 (GraphPad Software, La Jolla, Calif., USA). The D'Agostino-Pearson omnibus test was used to evaluate all datasets for Gaussian distribution. Groups were compared using a paired t-test for normally-distributed data sets and a Wilcoxon matched-pairs test when Gaussian distribution could not be assumed. Mean values and standard deviation are reported for data sets with Gaussian distribution. Median and minimum/maximum values are reported for data sets where Gaussian distribution could not be assumed. The significance threshold was set at p=0.05.
# TGF-β1 = settings: one published study, cited from earlier work
# dogs = settings: 10, 30 and 100 mg/kg/day, oral capsules, 30-day study; cited from earlier work
compound,measurement,setting,value
"CN(C)C(=O)COC(=O)Cc1ccc(OC(=O)c2ccc(NC(=N)N)cc2)cc1 [Camostat Mesilate, N,N-dimethylcarbamoylmethyl-4-(4-guanidinobenzoyloxy)phenylacetate methanesulfonate]","Change in serum S100A12, pre- vs post-treatment",[1]; methanesulfonate,no significant difference; also recorded: did not change significantly
same,Serum S100A12 concentration post-treatment (median),"[1]; pre-treatment median 147, post range 58-746, p=0.8176",148 µg/L
same,"Change in serum TGF-β1, pre- vs post-treatment (paired t-test)","[2]; 4 mg/kg q 8 hrs, n=12",no significant difference; also recorded: did not change significantly
same,Serum TGF-β1 concentration post-treatment (mean),"[2]; 4 mg/kg q 8 hrs, n=12, pre-treatment mean 45, post SD ±8, p=0.3679",43 ng/mL
same,"Change in serum TGF-β1, pre- vs post-treatment (paired t-test)","[2]; 8 mg/kg q 8 hrs, n=17",no significant difference; also recorded: did not change significantly
same,Serum TGF-β1 concentration post-treatment (mean),"[2]; 8 mg/kg q 8 hrs, n=17, pre-treatment mean 47, post SD ±12, p=0.1686",40 ng/mL
same,Serum TGF-β1 concentration post-treatment (mean),"[2]; all treated dogs combined, n=29, pre-treatment mean 46, post SD ±11, p=0.0986",41 ng/mL
same,"Change in serum TGF-β1, pre- vs post-treatment (paired t-test)","[2]; all treated dogs combined, n=29, trend towards a decrease",no statistically significant difference; also recorded: did not lead to any significant changes
same,Hepatic stellate cell activation and hepatic fibrosis,TGF-β1,attenuated hepatic stellate cell activation as well as hepatic fibrosis
same,Systemic or local side effects,TGF-β1,without entailing apparent systemic or local side effects
same,TGF-β1 concentrations,TGF-β1; methanesulfonate,decreased TGF-β1 concentrations; also recorded: suppressed
same,Toxicity findings,dogs,no significant toxicities
